Assay results published in US6716437B1, “Topical composition and method for enhancing lipid barrier synthesis” (E-L Management Corporation, priority 1993, dated 2004).
“Also recorded” adds a separate entry of the source.

Columns and labels:
[1] = system: Living skin models; assay: Living skin models: ceramide/lipid production by HPTLC/TLC; format: cell-based
Method: A. Determination of cafestol activity. Living skin models (#1301) are obtained from Advanced Tissue Sciences and treated with cafestol acetate(Sigma)by addition of a stock solution prepared in cell culture medium in a dose-dependent manner from 0.01 mg/ml to 1.0 mg/ml, or in a time-dependent manner at 0.5 mg/ml for up to 7 days. All experiments are conducted with untreated controls. At each dose or time point, the skin models are homogenized and the lipids extracted with chloroform/methanol(2:1), taken to dryness, and resuspended in chloroform. Samples are chromatographed on HPTLC and their lipid composition visualized by degradative charring (Melnick et al., J. Invest. Dermatol 92:231-234, 1989)
B. Comparison of cafestol activity with coffee bean oil activity. To compare the lipid enhancing activity of cafestol with that of coffee bean oil, living skin models are treated over a period of five days with increasing amounts of cafestol acetate in a range from 0.01 mg/ml to 1.0 mg/ml. A parallel set of living skin squares is also tested with a sample of coffee bean oil (Robeco). At the end of the incubation period, each skin square is homogenized and its lipids extracted in chloroform/methanol (2:1). This is followed by TLC analysis. Ceramides are identified by degradative charring and comparison to ceramide standards. Densitometric analysis of the TLC plate is carried out with an Optimas Bioscan.

[2] = system: skin barrier; assay: Clinical study: skin barrier function by tape stripping and TEWL; format: in vivo, human; conditions: twice a day, volar forearm
Method: B. Effect of cafestol on skin barrier function. Ten healthy female subjects, between the ages of 25-45. with normal skin on their forearms are tested in this study. […] They acclimate in the environmental room at 40% relative humidity and 70° F. for 20 minutes before their baseline measurements are recorded. They are then randomly assigned to one of two treatment groups.
Group I (n=5) receives treatment containing cafestol at 0.1% to use on one arm and a placebo to use on the other arm. Group II (n+5) uses a treatment containing 0.2% cafestol palmitate on one arm and a treatment containing 0.1% cafestol acetate on the other arm. The subjects self-administer the treatment twice a day on the lower part of their volar forearms except on the day of testing.
A five cm by two cm are is marked using a template on the lower inner forearm and initial water evaporation measurements are taken in three separate spots approximately 1 cm apart in a row. Five cm of the cello-tape is placed on the skin in the outlined area, starting from the top and after one firm stroke in each direction is removed by gently pulling in a downward direction parallel to the skin. The procedure is repeated and water evaporation is measured after every five to ten strips until the barrier is broken, as indicated by a minimum water evaporation of 18 g/sq m hr on one of the three spots. The subjects' transepidermal water loss (TEWL) is monitored on the challenged sites after 1, 2 and 3 days in order to measure the ability of the skin to repair itself. After 5 and 10 days of product treatment, the above procedure is repeated under the same test conditions on an adjacent new site.
TEWL is measured with the Servo Med Evaporimeter, fitted with a chimney and gauze. The subjects are in a relaxed inclined position, and are not allowed to converse or get excited. TEWL is recorded automatically using the Dia-Stron computer program set at a 30 second data acquisition time and a 15 second plateau.
B. Barrier strength measurements. Barrier strength is evaluated by challenging the skin with tape stripping and measuring the water evaporation (WE). To describe the experimental data, curve fitting Linear Regression Analysis based on least-square method is performed on each individual's data and the number of tape strippings required to reach a WE of 18 g/sq m/hr is recorded for each visit. The number of tape strippings required to perturb the barrier is a measure of its strength.

[3] = system: Living skin models; assay: Histology of treated living skin models; format: cell-based; conditions: living skin squares, fixed, sectioned, hematoxylin/eosin
Method: C. Histology. To determine the histological effect of cafestol application to living skin, skin squares are treated as described above; at the end of the incubation period, samples are fixed, sectioned and stained with hematoxylin/eosin.

[4] = system: stratum corneum lipids; assay: Clinical study: ceramide levels on human skin by thin layer chromatography; format: in vivo
Method: A. Determination of cafestol activity on lipid production. […] A short clinical study, consisting of five subjects, is then carried out under the same conditions in order to test the ability of cafestol acetate to raise ceramide levels. At zero time, ethanol washes are performed in order to remove stratum corneum lipids from both arms. Cafestol acetate, prepared in ethanol at a concentration of 1 mg/ml, is applied twice a day with a pump spray to the right volar forearm. As a control, ethanol is applied at the corresponding site at the left arm. On day three, stratum corneum lipids are again removed and both zero time and day three lipids from both arms are evaluated by thin layer chromatography as described above.

SMILES	ceramides as a function of dose (HPTLC) ([1]; 0.01 mg/ml to 1.0 mg/ml)	ceramides as a function of time (HPTLC) ([1]; 0.5 mg/ml for up to 7 days)	increase in barrier strength (number of tape strippings to reach WE of 18 g/sq m/hr) ([2]; after 5 days of treatment) [%]	increase in barrier strength (number of tape strippings to reach WE of 18 g/sq m/hr) ([2]; after 10 days of treatment) [%]	stratum corneum (histological analysis) [3]	ceramide production, comparison with coffee bean oil (TLC, densitometric scan) ([1]; five days, 0.01 mg/ml to 1.0 mg/ml)	ceramide I level ([4]; five subjects, 1 mg/ml in ethanol twice a day, volar forearm, day three)	ceramide I level ([4]; initial test, single individual, applied directly to skin over three days)	ceramide IV level ([4]; the subject without ceramide I increase, 1 mg/ml in ethanol twice a day, day three)
CC(=O)OC[C@@]1(O)C[C@@]23CC[C@@H]4c5ccoc5CC[C@@]4(C)[C@@H]2CC[C@@H]1C3 [cafestol acetate]	increase in ceramide production with increasing dosage; also recorded: selective increase in ceramides as a function of dose	presence of ceramides after only one day of application, reaching maximum concentrations after three days	10	38					
CCCCCCCCCCCCCCCC(=O)OC[C@@]1(O)C[C@@]23CC[C@@H]4c5ccoc5CC[C@@]4(C)[C@@H]2CC[C@@H]1C3 [cafestol palmitate]			8	43					
C[C@@]12CCc3occc3[C@H]1CC[C@@]13C[C@@H](CC[C@H]12)[C@@](O)(CO)C3 [cafestol]					clear increase in stratum corneum	dose-dependent increase in ceramide production	increased levels of ceramide I in four of the five subjects	elevated	increase in ceramide IV
